Experimental data taken from paper PMC7385619, “A triple action CDK4/6-PI3K-BET inhibitor with augmented cancer cell cytotoxicity” (Cell Discovery, 2020).

Tests used:
Experiment in all cases: KINOMEscan assay (Eurofins DiscoverX)
Type in all cases: binding
kinome (kinase panel) [1] = molecular target: T1, kinome (kinase panel) (Homo sapiens, UniProt Q16539); settings: p38-alpha (Entrez MAPK14); 1000 nM; read-out: Percent Control
T1 construct: purchased Eurofins DiscoverX

kinome (kinase panel) [2] = molecular target: T2, kinome (kinase panel) (Homo sapiens, UniProt P49137); settings: MAPKAPK2; 1000 nM; read-out: Percent Control
T2 construct: purchased Eurofins DiscoverX
T2 sequence (P49137 whole entry): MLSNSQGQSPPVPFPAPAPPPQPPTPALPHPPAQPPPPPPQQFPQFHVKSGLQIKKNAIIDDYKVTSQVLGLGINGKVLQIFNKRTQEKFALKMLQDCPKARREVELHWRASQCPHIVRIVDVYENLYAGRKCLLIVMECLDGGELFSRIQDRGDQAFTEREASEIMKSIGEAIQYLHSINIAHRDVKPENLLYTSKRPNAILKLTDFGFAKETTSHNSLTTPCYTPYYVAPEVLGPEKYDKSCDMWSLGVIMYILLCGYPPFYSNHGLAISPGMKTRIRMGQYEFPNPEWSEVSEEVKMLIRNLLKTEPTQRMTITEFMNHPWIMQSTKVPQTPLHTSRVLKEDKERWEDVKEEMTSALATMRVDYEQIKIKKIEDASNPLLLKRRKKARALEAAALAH

kinome (kinase panel) [3] = molecular target: T3, kinome (kinase panel) (Homo sapiens, UniProt P00519, M351T); settings: read-out: Percent Control
T3 construct: purchased Eurofins DiscoverX

kinome (kinase panel) [4] = molecular target: T4, kinome (kinase panel) (Homo sapiens, UniProt O94768); settings: DRAK2 (Entrez STK17B); 1000 nM; read-out: Percent Control
T4 construct: purchased Eurofins DiscoverX

kinome (kinase panel) [5] = molecular target: T5, kinome (kinase panel) (Homo sapiens, UniProt Q13705); settings: ACVR2B; 1000 nM; read-out: Percent Control
T5 construct: purchased Eurofins DiscoverX

kinome (kinase panel) [6] = molecular target: T6, kinome (kinase panel) (Homo sapiens, UniProt Q9H2X6); settings: HIPK2; 1000 nM; read-out: Percent Control
T6 construct: purchased Eurofins DiscoverX

kinome (kinase panel) [7] = molecular target: T7, kinome (kinase panel) (Homo sapiens, UniProt Q15746); settings: MYLK; 1000 nM; read-out: Percent Control
T7 construct: purchased Eurofins DiscoverX

kinome (kinase panel) [8] = molecular target: T8, kinome (kinase panel) (Homo sapiens, UniProt Q16620); settings: TRKB (NTRK2); 1000 nM; read-out: Percent Control
T8 construct: purchased Eurofins DiscoverX

kinome (kinase panel) [9] = molecular target: T9, kinome (kinase panel) (Homo sapiens, UniProt Q8N568); settings: DCAMKL2 (Entrez DCLK2); 1000 nM; read-out: Percent Control
T9 construct: purchased Eurofins DiscoverX

kinome (kinase panel) [10] = molecular target: T10, kinome (kinase panel) (Homo sapiens, UniProt Q04912); settings: MST1R; 1000 nM; read-out: Percent Control
T10 construct: purchased Eurofins DiscoverX

kinome (kinase panel) [11] = molecular target: T11, kinome (kinase panel) (Homo sapiens, UniProt Q9BWU1); settings: CDK11 (Entrez CDK19); 1000 nM; read-out: Percent Control
T11 construct: purchased Eurofins DiscoverX

kinome (kinase panel) [12] = molecular target: T12, kinome (kinase panel) (Homo sapiens, UniProt O14936); settings: CASK; 1000 nM; read-out: Percent Control
T12 construct: purchased Eurofins DiscoverX

kinome (kinase panel) [13] = molecular target: T13, kinome (kinase panel) (Homo sapiens, UniProt P16234); settings: PDGFRA; 1000 nM; read-out: Percent Control
T13 construct: purchased Eurofins DiscoverX

kinome (kinase panel) [14] = molecular target: T14, kinome (kinase panel) (Homo sapiens, UniProt O14965); settings: AURKA; 1000 nM; read-out: Percent Control
T14 construct: purchased Eurofins DiscoverX

kinome (kinase panel) [15] = molecular target: T15, kinome (kinase panel) (Homo sapiens, UniProt Q52WX2); settings: SBK1; 1000 nM; read-out: Percent Control
T15 construct: purchased Eurofins DiscoverX

kinome (kinase panel) [16] = molecular target: T16, kinome (kinase panel) (Homo sapiens, UniProt Q9BQI3); settings: EIF2AK1; 1000 nM; read-out: Percent Control
T16 construct: purchased Eurofins DiscoverX

kinome (kinase panel) [17] = molecular target: T17, kinome (kinase panel) (Homo sapiens, UniProt Q99640); settings: PKMYT1; 1000 nM; read-out: Percent Control
T17 construct: purchased Eurofins DiscoverX
T17 sequence (Q99640 whole entry): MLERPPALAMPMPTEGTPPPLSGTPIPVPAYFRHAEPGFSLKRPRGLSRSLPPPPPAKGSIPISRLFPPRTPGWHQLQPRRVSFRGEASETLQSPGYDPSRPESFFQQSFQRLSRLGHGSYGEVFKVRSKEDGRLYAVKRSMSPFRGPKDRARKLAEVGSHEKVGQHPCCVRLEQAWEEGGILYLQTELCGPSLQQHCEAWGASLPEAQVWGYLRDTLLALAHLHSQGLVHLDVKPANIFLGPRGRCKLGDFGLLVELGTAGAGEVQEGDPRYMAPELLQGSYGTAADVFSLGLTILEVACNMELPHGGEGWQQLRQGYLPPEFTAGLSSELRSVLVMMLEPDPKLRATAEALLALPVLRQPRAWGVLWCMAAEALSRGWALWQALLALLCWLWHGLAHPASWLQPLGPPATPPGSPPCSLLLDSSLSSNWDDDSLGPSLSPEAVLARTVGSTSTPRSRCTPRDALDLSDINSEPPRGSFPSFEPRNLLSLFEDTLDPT

kinome (kinase panel) [18] = molecular target: T18, kinome (kinase panel) (Homo sapiens, UniProt P15735); settings: PHKG2; 1000 nM; read-out: Percent Control
T18 construct: purchased Eurofins DiscoverX

kinome (kinase panel) [19] = molecular target: T19, kinome (kinase panel) (Homo sapiens, UniProt Q08881); settings: ITK; 1000 nM; read-out: Percent Control
T19 construct: purchased Eurofins DiscoverX

kinome (kinase panel) [20] = molecular target: T20, kinome (kinase panel) (Homo sapiens, UniProt P08922); settings: ROS1; 1000 nM; read-out: Percent Control
T20 construct: purchased Eurofins DiscoverX

kinome (kinase panel) [21] = molecular target: T21, kinome (kinase panel) (Homo sapiens, UniProt P0C1S8); settings: WEE2; 1000 nM; read-out: Percent Control
T21 construct: purchased Eurofins DiscoverX

kinome (kinase panel) [22] = molecular target: T22, kinome (kinase panel) (Homo sapiens, UniProt Q9Y2U5); settings: MAP3K2; 1000 nM; read-out: Percent Control
T22 construct: purchased Eurofins DiscoverX

kinome (kinase panel) [23] = molecular target: T23, kinome (kinase panel) (Homo sapiens, UniProt Q9NRH2); settings: SNRK; 1000 nM; read-out: Percent Control
T23 construct: purchased Eurofins DiscoverX

kinome (kinase panel) [24] = molecular target: T24, kinome (kinase panel) (Homo sapiens, UniProt Q9BYT3); settings: STK33; 1000 nM; read-out: Percent Control
T24 construct: purchased Eurofins DiscoverX

kinome (kinase panel) [25] = molecular target: T25, kinome (kinase panel) (Homo sapiens, UniProt O75385); settings: ULK1; 1000 nM; read-out: Percent Control
T25 construct: purchased Eurofins DiscoverX

kinome (kinase panel) [26] = molecular target: T26, kinome (kinase panel) (Homo sapiens, UniProt P42338); settings: PIK3CB; 1000 nM; read-out: Percent Control
T26 construct: purchased Eurofins DiscoverX
T26 sequence (P42338 whole entry): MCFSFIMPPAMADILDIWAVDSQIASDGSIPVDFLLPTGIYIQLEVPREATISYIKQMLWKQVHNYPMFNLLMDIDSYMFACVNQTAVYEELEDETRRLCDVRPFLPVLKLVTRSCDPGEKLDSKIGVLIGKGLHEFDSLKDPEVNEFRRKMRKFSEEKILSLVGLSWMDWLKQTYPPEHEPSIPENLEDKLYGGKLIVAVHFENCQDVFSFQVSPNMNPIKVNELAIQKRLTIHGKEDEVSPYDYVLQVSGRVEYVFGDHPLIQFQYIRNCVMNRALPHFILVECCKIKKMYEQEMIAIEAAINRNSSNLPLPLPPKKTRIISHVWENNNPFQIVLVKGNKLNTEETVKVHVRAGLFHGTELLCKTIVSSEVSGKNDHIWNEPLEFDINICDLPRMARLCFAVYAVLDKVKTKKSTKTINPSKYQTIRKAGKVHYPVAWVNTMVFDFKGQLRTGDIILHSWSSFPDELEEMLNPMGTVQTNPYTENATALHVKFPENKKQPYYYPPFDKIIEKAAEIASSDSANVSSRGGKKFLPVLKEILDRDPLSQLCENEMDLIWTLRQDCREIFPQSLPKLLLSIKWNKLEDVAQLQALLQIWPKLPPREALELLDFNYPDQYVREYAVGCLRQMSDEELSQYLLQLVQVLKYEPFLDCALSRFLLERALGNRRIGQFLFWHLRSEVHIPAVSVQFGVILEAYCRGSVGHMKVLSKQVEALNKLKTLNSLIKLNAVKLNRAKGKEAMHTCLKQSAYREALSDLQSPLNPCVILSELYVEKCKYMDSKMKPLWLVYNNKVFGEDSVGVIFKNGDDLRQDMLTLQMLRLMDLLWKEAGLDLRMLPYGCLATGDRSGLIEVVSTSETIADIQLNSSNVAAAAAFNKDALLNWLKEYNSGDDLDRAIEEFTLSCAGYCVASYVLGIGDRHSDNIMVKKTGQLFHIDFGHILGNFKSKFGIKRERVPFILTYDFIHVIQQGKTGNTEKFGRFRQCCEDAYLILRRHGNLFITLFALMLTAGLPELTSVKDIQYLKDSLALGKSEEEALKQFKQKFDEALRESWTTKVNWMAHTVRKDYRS

kinome (kinase panel) [27] = molecular target: T27, kinome (kinase panel) (Homo sapiens, UniProt P51617); settings: IRAK1; 1000 nM; read-out: Percent Control
T27 construct: purchased Eurofins DiscoverX
T27 sequence (P51617 whole entry): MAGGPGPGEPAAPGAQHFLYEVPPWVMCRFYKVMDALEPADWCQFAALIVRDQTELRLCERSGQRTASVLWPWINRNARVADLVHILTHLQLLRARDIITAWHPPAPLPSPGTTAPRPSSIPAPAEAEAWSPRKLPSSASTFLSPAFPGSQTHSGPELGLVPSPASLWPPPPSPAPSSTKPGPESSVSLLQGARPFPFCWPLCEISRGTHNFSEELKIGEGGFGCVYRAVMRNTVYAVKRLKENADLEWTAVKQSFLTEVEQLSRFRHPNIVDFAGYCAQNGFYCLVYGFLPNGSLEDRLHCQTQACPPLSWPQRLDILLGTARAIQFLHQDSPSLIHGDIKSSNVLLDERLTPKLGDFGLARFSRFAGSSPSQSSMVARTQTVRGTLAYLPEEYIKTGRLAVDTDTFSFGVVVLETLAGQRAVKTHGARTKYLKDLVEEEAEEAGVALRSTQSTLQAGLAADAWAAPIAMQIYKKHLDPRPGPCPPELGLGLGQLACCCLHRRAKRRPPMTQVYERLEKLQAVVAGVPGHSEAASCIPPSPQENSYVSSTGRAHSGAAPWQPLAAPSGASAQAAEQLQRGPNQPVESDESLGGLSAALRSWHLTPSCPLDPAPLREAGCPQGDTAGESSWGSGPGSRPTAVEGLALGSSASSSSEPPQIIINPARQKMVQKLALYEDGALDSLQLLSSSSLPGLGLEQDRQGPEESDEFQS

kinome (kinase panel) [28] = molecular target: T28, kinome (kinase panel) (Homo sapiens, UniProt P29317); settings: EPHA2; 1000 nM; read-out: Percent Control
T28 construct: purchased Eurofins DiscoverX

kinome (kinase panel) [29] = molecular target: T29, kinome (kinase panel) (Homo sapiens, UniProt Q6XUX3); settings: RIPK5 (DSTYK); 1000 nM; read-out: Percent Control
T29 construct: purchased Eurofins DiscoverX

kinome (kinase panel) [30] = molecular target: T30, kinome (kinase panel) (Homo sapiens, UniProt Q9NRP7); settings: STK36; 1000 nM; read-out: Percent Control
T30 construct: purchased Eurofins DiscoverX

kinome (kinase panel) [31] = molecular target: T31, kinome (kinase panel) (Homo sapiens, UniProt Q6PHR2); settings: ULK3; 1000 nM; read-out: Percent Control
T31 construct: purchased Eurofins DiscoverX
T31 sequence (Q6PHR2 whole entry): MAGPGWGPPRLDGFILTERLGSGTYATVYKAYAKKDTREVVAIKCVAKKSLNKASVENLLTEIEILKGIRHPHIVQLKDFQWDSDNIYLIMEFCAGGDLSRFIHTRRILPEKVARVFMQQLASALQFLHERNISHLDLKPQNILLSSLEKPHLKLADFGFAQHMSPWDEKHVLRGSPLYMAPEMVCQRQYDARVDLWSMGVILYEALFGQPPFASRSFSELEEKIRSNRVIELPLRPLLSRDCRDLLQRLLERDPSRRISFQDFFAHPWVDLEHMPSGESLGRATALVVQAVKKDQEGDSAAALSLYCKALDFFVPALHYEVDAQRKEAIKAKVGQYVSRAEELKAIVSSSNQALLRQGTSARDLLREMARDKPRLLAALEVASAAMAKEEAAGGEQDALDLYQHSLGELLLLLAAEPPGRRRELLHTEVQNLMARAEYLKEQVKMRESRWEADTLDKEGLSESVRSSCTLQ

kinome (kinase panel) [32] = molecular target: T32, kinome (kinase panel) (Homo sapiens, UniProt P42336, M1043I); settings: read-out: Percent Control
T32 construct: purchased Eurofins DiscoverX
T32 sequence (P42336 whole entry M1043I): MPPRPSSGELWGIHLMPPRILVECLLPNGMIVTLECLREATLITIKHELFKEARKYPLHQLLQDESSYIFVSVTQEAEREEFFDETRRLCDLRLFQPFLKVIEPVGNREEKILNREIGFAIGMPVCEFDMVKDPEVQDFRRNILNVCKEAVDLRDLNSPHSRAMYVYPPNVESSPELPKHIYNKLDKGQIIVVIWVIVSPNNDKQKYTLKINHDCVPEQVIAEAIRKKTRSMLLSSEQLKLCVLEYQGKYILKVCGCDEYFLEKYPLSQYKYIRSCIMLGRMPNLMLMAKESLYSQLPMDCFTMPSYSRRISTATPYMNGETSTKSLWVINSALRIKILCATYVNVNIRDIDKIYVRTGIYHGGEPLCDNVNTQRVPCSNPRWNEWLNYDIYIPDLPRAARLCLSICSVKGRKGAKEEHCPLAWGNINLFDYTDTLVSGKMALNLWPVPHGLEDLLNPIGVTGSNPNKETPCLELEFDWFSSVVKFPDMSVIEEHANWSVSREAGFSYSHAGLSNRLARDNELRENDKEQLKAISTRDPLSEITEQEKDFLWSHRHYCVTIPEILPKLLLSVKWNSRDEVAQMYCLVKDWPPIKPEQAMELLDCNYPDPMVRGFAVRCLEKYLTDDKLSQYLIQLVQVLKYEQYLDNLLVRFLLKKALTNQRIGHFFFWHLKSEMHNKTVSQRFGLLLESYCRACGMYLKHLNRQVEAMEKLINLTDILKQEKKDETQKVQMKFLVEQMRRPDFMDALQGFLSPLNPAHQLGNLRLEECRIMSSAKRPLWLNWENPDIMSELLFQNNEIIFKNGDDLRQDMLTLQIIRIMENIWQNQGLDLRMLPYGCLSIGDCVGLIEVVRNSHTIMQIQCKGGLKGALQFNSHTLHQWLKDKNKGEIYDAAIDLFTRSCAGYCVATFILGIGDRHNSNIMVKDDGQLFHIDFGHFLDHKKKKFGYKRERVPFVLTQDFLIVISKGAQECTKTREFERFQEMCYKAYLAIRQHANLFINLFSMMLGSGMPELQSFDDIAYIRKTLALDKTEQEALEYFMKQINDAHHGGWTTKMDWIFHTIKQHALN

kinome (kinase panel) [33] = molecular target: T33, kinome (kinase panel) (Homo sapiens, UniProt P21802); settings: FGFR2; 1000 nM; read-out: Percent Control
T33 construct: purchased Eurofins DiscoverX
T33 sequence (P21802 22-821): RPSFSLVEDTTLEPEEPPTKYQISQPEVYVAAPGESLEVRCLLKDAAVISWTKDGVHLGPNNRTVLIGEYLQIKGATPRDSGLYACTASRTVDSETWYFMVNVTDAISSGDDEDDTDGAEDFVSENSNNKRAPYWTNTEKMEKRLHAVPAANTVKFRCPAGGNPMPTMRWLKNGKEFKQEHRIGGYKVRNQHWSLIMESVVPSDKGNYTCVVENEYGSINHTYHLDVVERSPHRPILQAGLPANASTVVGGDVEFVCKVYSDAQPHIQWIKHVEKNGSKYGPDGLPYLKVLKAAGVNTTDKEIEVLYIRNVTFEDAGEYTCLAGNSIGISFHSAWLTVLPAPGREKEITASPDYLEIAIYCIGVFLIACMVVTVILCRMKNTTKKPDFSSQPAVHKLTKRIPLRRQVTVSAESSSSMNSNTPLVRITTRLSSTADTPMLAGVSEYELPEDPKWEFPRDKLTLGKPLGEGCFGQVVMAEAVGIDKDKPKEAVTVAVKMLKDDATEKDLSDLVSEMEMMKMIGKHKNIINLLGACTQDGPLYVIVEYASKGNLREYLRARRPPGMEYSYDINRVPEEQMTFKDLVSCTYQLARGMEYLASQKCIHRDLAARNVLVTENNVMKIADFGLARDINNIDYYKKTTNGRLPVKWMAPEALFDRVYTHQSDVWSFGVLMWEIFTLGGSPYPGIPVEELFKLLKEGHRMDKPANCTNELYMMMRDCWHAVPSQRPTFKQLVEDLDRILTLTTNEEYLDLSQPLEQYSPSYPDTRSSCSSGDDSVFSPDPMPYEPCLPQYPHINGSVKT

## CN(C)C(=O)c1cc2cnc(Nc3ccc(-c4csc5c(=O)cc(N6CCOCC6)oc45)cc3)nc2n1C1CCCC1 [SRX3177]
Kinome (kinase panel) [1]
  remaining binding at 1 µM: 100%
Kinome (kinase panel) [2]
  remaining binding at 1 µM: 100%
Kinome (kinase panel) [3]
  remaining binding at 1 µM: 49%
Kinome (kinase panel) [4]
  remaining binding at 1 µM: 100%
Kinome (kinase panel) [5]
  remaining binding at 1 µM: 87%
Kinome (kinase panel) [6]
  remaining binding at 1 µM: 76%
Kinome (kinase panel) [7]
  remaining binding at 1 µM: 5.4%
Kinome (kinase panel) [8]
  remaining binding at 1 µM: 40%
Kinome (kinase panel) [9]
  remaining binding at 1 µM: 90%
Kinome (kinase panel) [10]
  remaining binding at 1 µM: 77%
Kinome (kinase panel) [11]
  remaining binding at 1 µM: 80%
Kinome (kinase panel) [12]
  remaining binding at 1 µM: 35%
Kinome (kinase panel) [13]
  remaining binding at 1 µM: 60%
Kinome (kinase panel) [14]
  remaining binding at 1 µM: 0%
Kinome (kinase panel) [15]
  remaining binding at 1 µM: 67%
Kinome (kinase panel) [16]
  remaining binding at 1 µM: 79%
Kinome (kinase panel) [17]
  remaining binding at 1 µM: 88%
Kinome (kinase panel) [18]
  remaining binding at 1 µM: 97%
Kinome (kinase panel) [19]
  remaining binding at 1 µM: 90%
Kinome (kinase panel) [20]
  remaining binding at 1 µM: 96%
Kinome (kinase panel) [21]
  remaining binding at 1 µM: 100%
Kinome (kinase panel) [22]
  remaining binding at 1 µM: 72%
Kinome (kinase panel) [23]
  remaining binding at 1 µM: 82%
Kinome (kinase panel) [24]
  remaining binding at 1 µM: 98%
Kinome (kinase panel) [25]
  remaining binding at 1 µM: 90%
Kinome (kinase panel) [26]
  remaining binding at 1 µM: 22%
Kinome (kinase panel) [27]
  remaining binding at 1 µM: 32%
Kinome (kinase panel) [28]
  remaining binding at 1 µM: 76%
Kinome (kinase panel) [29]
  remaining binding at 1 µM: 87%
Kinome (kinase panel) [30]
  remaining binding at 1 µM: 92%
Kinome (kinase panel) [31]
  remaining binding at 1 µM: 51%
Kinome (kinase panel) [32]
  remaining binding at 1 µM: 70%
Kinome (kinase panel) [33]
  remaining binding at 1 µM: 86%
